The text below walks through data of patent US20250144036A1, “COMPOUNDS AND COMPOSITIONS FOR DELIVERY OF THERAPEUTIC AGENTS” (ModernaTX, Inc., priority 2021, published 2025).

SMILES strings stand for the structures.

Assay [1] relates to endothelial cells. The experiment in a line: Expression of tdTomato (Cre mRNA) in endothelial cells following intravenous administration of loaded LNPs (flow cytometry of lung cells). Type of assay: in vivo, mice (Ail4). Conditions: ionizable lipid/PEG lipid VI-4/PEG-DMG, 30 mol % cationic lipid or none, i.v., 8 days before harvest. On the procedure:
(§1) Reagents: Digestion Media: 3 mg/mL collagenase 1, 0.1 mg/mL DNase I, Dulbecco's Modified Eagle Medium (DMEM); Wash solution: Dulbecco's phosphate-buffered saline (DPBS)+0.5% Bovine Serum Albumin (BSA); FACS Buffer: Flow Cytometry Staining Buffer (eBioscience™, ThermoFisher Scientific).
(§2) • CD31: General Endothelial Marker; • CD45: Leukocyte Common Marker; • mOX40L: Transmembrane Reporter; • tdTomato: Fluorescence Protein Reporter from Cre-mediated recombination in Ail4 mice.
(§3) Six-week-old female mice (Ail4) were aged in-house to approximately 7-8 weeks of age. With an n=5 per group, Cre mRNA (i.e., mRNA leading to expression of tdTomato) formulated LNPs were intravenously dosed via the lateral tail vein 8 days before harvest. […] Collected data was analyzed using flow cytometry analysis software (FlowJo™).
(§4) To assess the delivery of a therapeutic agent comprised in loaded LNPs of the disclosure to endothelial cells, the expression of Cre and mOX40L mRNA encapsulated in loaded LNPs of the disclosure was measured in endothelial cells following administration of the loaded LNPs to Ail4 mice as described in Example 3. […] The expression was evaluated in LNPs comprising 30 mol % of a cationic lipid of Formula (I) and in loaded LNPs not comprising the cationic of Formula (I) (i.e., LNPs not comprising a cationic lipid, or LNPs comprising dioleoyl-3-trimethylammonium propane (DOTAP)).

Assay [2] has as its system endothelial cells. Description: Expression of mOX40L in endothelial cells following intravenous administration of loaded LNPs (flow cytometry of lung cells). Conditions: ionizable lipid/PEG lipid VI-4/PEG-DMG, 30 mol % cationic lipid or none, i.v., 24 h after dose. Format: in vivo, mice (Ail4). On the procedure:
as §1, §2, §3, §4

For `CCCCCCCC/C=C\CCCCCCCC(=O)OCC(C[N+](C)(C)C)OC(=O)CCCCCCC/C=C\CCCCCCCC` (centres unmarked) [DOTAP, dioleoyl-3-trimethylammonium propane], the “% Endothelial cells Average” value in assay [1] and in assay [2] was 0% throughout.
